Results reported in patent publication US8158657B2, “Heterocycles substituted pyridine derivatives and antifungal agent containing thereof” (Eisai R&D Management Co., Ltd., priority 2005, dated 2012).
Values after ≈ are worked out from the molar mass of the structure shown.

Assays:
[1] = test system: A. fumigatus Tsukuba strain; assay: Anti-Aspergillus activity, MIC measurement; type: cell-based; settings: RPMI1640, 42-48 hours at 35° C., visual inspection, read-out: Anti-Aspergillus Activity (minimum inhibitory concentration, MIC)
Procedure: (§1) For the C. albicans CAF2-1 strain, a fungal suspension from a standing culture for 48 hours at 30° C. in a Sabouraud dextrose liquid culture medium (SDB) was diluted with RPMI1640 medium to adjust a fungal suspension of 1.2×10^3 cells/mL. For the A. fumigatus Tsukuba strain, −80° C. stored strain was diluted with RPMI1640 medium to adjust to a fungal suspension of 4.5×10^3 cells/mL.
(§2) Using a U-bottomed 96 well plate, 8 samples/plate (A to H) of sample dilution solutions were prepared. On the 2nd to 12th rows were dispensed 10 μL of dimethyl sulfoxide solution. Weighted sample was dissolved in dimethyl sulfoxide to prepare a 2.5 mg/mL solution, 20 μL of this solution was added to the first row of the prepared plate, and 12 steps of two-fold step dilutions (10 μL of solution+10 μL of dimethyl sulfoxide solution) were performed on the plate. This sample dilution solution was dispensed in the amount of 1 μL to a flat-bottomed 96 well plate for MIC measurement to prepare a sample dilution plate.
(§3) The fungal suspension prepared in (1) was used in the amount of 99 μL/well to inoculate the flat-bottomed 96 well plate containing 1 μL/well of the test compound dilution prepared in (2), and a standing culture was carried out aerobically for 42-48 hours at 35° C.

[2] = test system: C. albicans CAF2-1 strain; assay: Anti-Candida activity, MIC measurement; type: cell-based; settings: CAF21STRAIN, C. albicans CAF2-1, RPMI1640, 42-48 hours at 35° C., visual inspection, read-out: Anti-Candida Activity (minimum inhibitory concentration, MIC)
Procedure: as §1, §2, §3

Structure (SMILES)	MIC [1] [µg/mL]	MIC [2] [µg/mL]
Nc1ncccc1-c1cc(Cc2ccc(OCc3ccc(Cl)cn3)cc2)no1 [Example 63, 3-(3-(4-(5-Chloro-pyridin-2-ylmethoxy)-benzyl)-isoxazol-5-yl)-pyridin-2-ylamine]	0.78 (≈ 1.99 µM)	0.78 (≈ 1.99 µM)
Nc1ncccc1-c1cc(Cc2cccc(Oc3ccccc3)c2)no1 [Example 64, 3-(3-(3-Phenoxy-benzyl)-isoxazol-5-yl)-pyridin-2-ylamine]	0.78 (≈ 2.27 µM)	0.2 (≈ 0.582 µM)
CCCCOc1cccc(Cc2cc(-c3cccnc3N)on2)c1 [Example 65, 3-(3-(3-Butoxy-benzyl)-isoxazol-5-yl)-pyridin-2-ylamine]	0.78 (≈ 2.41 µM)	0.39 (≈ 1.21 µM)
Nc1ncccc1-c1cc(Cc2cccc(OCC3CC3)c2)no1 [Example 66, 3-(3-(3-Cyclopropylmethoxy-benzyl)-isoxazol-5-yl)-pyridin-2-ylamine]	0.78 (≈ 2.43 µM)	0.1 (≈ 0.311 µM)
CCCCOc1ccc(Cc2cc(-c3cccnc3N)on2)cc1 [Example 67, 3-(3-(4-Butoxy-benzyl)-isoxazol-5-yl)-pyridin-2-ylamine]	0.78 (≈ 2.41 µM)	1.56 (≈ 4.82 µM)
Nc1ncccc1-c1cc(Cc2ccc(NCc3ccccc3)cc2)no1 [Example 68, 3-(3-(4-Benzylamino-benzyl)-isoxazol-5-yl)-pyridin-2-ylamine]	0.39 (≈ 1.09 µM)	0.1 (≈ 0.281 µM)
Nc1ncccc1-c1cc(Cc2ccc(Nc3ccccc3)cc2)no1 [Example 69, 3-(3-(4-Phenylamino-benzyl)-isoxazol-5-yl)-pyridin-2-ylamine]	0.2 (≈ 0.584 µM)	0.1 (≈ 0.292 µM)
CCCCc1ccc(Cc2cc(-c3cccnc3N)on2)cc1 [Example 70, 3-(3-(4-Butyl-benzyl)-isoxazol-5-yl)-pyridin-2-ylamine]	0.39 (≈ 1.27 µM)	1.56 (≈ 5.07 µM)
Nc1ncccc1-c1cc(Cc2ccc(Oc3cccc(F)c3)nc2)no1 [Example 71, 3-(3-(6-(3-Fluoro-phenoxy)-pyridin-3-ylmethyl)-isoxazol-5-yl)-pyridin-2-ylamine]	0.39 (≈ 1.08 µM)	0.2 (≈ 0.552 µM)
Nc1ncccc1-c1cc(Cc2ccc(COc3ccc(F)cc3)nc2)no1 [Example 72, 3-(3-(6-(4-Fluoro-phenoxymethyl)-pyridin-3-ylmethyl)-isoxazol-5-yl)pyridin-2-ylamine]	12.5 (≈ 33.2 µM)	6.25 (≈ 16.6 µM)
Nc1ncccc1-c1cc(Cc2ccc(Oc3ccccc3F)nc2)no1 [Example 74, 3-(3-(6-(2-Fluoro-phenoxy)-pyridin-3-ylmethyl)-isoxazol-5-yl)-pyridin-2-ylamin]	0.2 (≈ 0.552 µM)	0.1 (≈ 0.276 µM)
Nc1ncccc1-c1cc(Cc2ccc(Oc3ccc(F)cc3)nc2)no1 [Example 75, 3-(3-(6-(4-Fluoro-phenoxy)-pyridin-3-ylmethyl)-isoxazol-5-yl)-pyridin-2-ylamine]	0.2 (≈ 0.552 µM)	0.78 (≈ 2.15 µM)
Nc1ncccc1-c1cc(Cc2ccc(Oc3cccnc3)cc2)no1 [Example 76, 3-(3-(4-(Pyridin-3-yloxy)-benzyl)-isoxazol-5-yl)-pyridin-2-ylamine]	1.56 (≈ 4.53 µM)	1.56 (≈ 4.53 µM)
Nc1ncccc1-c1cc(Cc2ccc(OCc3ccsc3)cc2)no1 [Example 77, 3-(3-(4-(Thiophen-3-ylmethoxy)-benzyl)-isoxazol-5-yl)-pyridin-2-ylamine]	0.39 (≈ 1.07 µM)	0.2 (≈ 0.55 µM)
Nc1ncccc1-c1cc(Cc2ccc(OC3CCCC3)cc2)no1 [Example 78, 3-(3-(4-Cyclopentyloxy-benzyl)-isoxazol-5-yl)-pyridin-2-ylamine]	1.56 (≈ 4.65 µM)	0.78 (≈ 2.33 µM)
Nc1ncccc1-c1cc(Cc2ccc(OC3CCCCC3)cc2)no1 [Example 79, 3-(3-(4-Cyclohexyloxy-benzyl)-isoxazol-5-yl)-pyridin-2-ylamine]	6.25 (≈ 17.9 µM)	1.56 (≈ 4.46 µM)
Nc1ncccc1-c1cc(Cc2ccc(CCc3ccco3)cc2)no1 [Example 80, 3-(3-(4-(2-Furan-2-yl-ethyl)-benzyl)-isoxazol-5-yl)-pyridin-2-ylamine]	0.78 (≈ 2.26 µM)	0.2 (≈ 0.579 µM)
Nc1ncccc1-c1cc(Cc2ccc(Oc3cccc(F)c3)cc2)no1 [Example 81, 3-(3-(4-(3-Fluoro-phenoxy)-benzyl)-isoxazol-5-yl)-pyridin-2-ylamine]	0.39 (≈ 1.08 µM)	0.2 (≈ 0.553 µM)
Nc1ncccc1-c1cc(Cc2ccc(CCC3CCCO3)cc2)no1 (stereo not drawn) [Example 82, 3-(3-(4-(2-(Tetrahydrofuran-2-yl)-ethyl)-benzyl)-isoxazol-5-yl)-pyridin-2-ylamine]	0.39 (≈ 1.12 µM)	0.2 (≈ 0.572 µM)
Nc1ncccc1-c1cc(Cc2ccc(Oc3ccccc3F)cc2)no1 [Example 83]	0.2 (≈ 0.553 µM)	0.2 (≈ 0.553 µM)

Structure (SMILES)	MIC [1] [µg/mL]	MIC [2] [µg/mL]
Nc1ncccc1-c1cc(Cc2cccc(-c3ccccn3)c2)no1 [Example 84, 3-(3-(3-Pyridin-2-yl-benzyl)-isoxazol-5-yl)-pyridin-2-ylamine]	> 25	3.13 (≈ 9.53 µM)
Nc1ncccc1-c1cc(Cc2cccc(-c3ccccc3)c2)no1 [Example 85, 3-(3-Biphenyl-3-ylmethyl-isoxazol-5-yl)-pyridin-2-ylamine]	3.13 (≈ 9.56 µM)	1.56 (≈ 4.77 µM)
Nc1ncccc1-c1cc(Cc2ccc(COc3ccccc3)cc2)no1 [Example 86, 3-(3-(4-Phenoxymethyl-benzyl)-isoxazol-5-yl)-pyridin-2-ylamine]	0.2 (≈ 0.56 µM)	0.05 (≈ 0.14 µM)
Nc1ncccc1-c1cc(Cc2ccc(OCc3ccccn3)c(F)c2)no1 [Example 87, 3-(3-(3-Fluoro-4-(pyridin-2-ylmethoxy)-benzyl)-isoxazol-5-yl)-pyridin-2-ylamine]	0.78 (≈ 2.07 µM)	0.2 (≈ 0.531 µM)
Nc1ncccc1-c1cc(Cc2ccc(OCc3nccs3)cc2)no1 [Example 88, 3-(3-(4-(Thiazol-2-ylmethoxy)-benzyl)-isoxazol-5-yl)-pyridin-2-ylamine]	0.2 (≈ 0.549 µM)	0.2 (≈ 0.549 µM)
Nc1ncccc1-c1cc(Cc2ccc(OCc3ccc(F)c(F)c3)nc2)no1 [Example 89, 3-(3-(6-(3,4-Difluoro-benzyloxy)-pyridin-3-ylmethyl)-isoxazol-5-yl)-pyridin-2-ylamine]	0.2 (≈ 0.507 µM)	0.39 (≈ 0.989 µM)
Nc1ncccc1-c1cc(Cc2ccc(OCc3ccc(F)cc3F)nc2)no1 [Example 90, 3-(3-(6-(2,4-Difluoro-benzyloxy)-pyridin-3-ylmethyl)-isoxazol-5-yl)-pyridin-2-ylamine]	0.39 (≈ 0.989 µM)	1.56 (≈ 3.96 µM)
Nc1ncccc1-c1cc(Cc2ccc(Oc3ccc(F)cc3)s2)no1 [Example 91, 3-(3-(5-(4-Fluoro-phenoxy)-thiophen-2-ylmethyl)-isoxazol-5-yl)-pyridin-2-ylamine]	0.1 (≈ 0.272 µM)	0.2 (≈ 0.544 µM)
Cc1ccc(Cc2ccc(Cc3cc(-c4cccnc4N)on3)s2)cc1 [Example 92, 3-(3-(5-(4-Methyl-benzyl)-thiophen-2-ylmethyl)-isoxazol-5-yl)-pyridin-2-ylamine]	0.39 (≈ 1.08 µM)	0.39 (≈ 1.08 µM)
Nc1ncccc1-c1cc(Cc2ccc(CCc3ccccn3)cc2)no1 [Example 93, 3-(3-(4-(2-Pyridin-2-yl-ethyl)-benzyl)-isoxazol-5-yl)-pyridin-2-ylamine]	1.56 (≈ 4.38 µM)	0.2 (≈ 0.561 µM)
Nc1ncccc1-c1cc(Cc2ccc(OCc3ccc(F)cn3)c(F)c2)no1 [Example 94, 3-(3-(3-Fluoro-4-(5-fluoro-pyridin-2-ylmethoxy)-benzyl)-isoxazol-5-yl)pyridin-2-ylamine]	0.39 (≈ 0.989 µM)	0.78 (≈ 1.98 µM)
Nc1ncccc1-c1cc(Cc2ccc(OCc3ccccn3)cc2F)no1 [Example 95, 3-(3-(2-Fluoro-4-(pyridin-2-ylmethoxy)-benzyl)-isoxazol-5-yl)-pyridin-2-ylamine]	1.56 (≈ 4.14 µM)	0.39 (≈ 1.04 µM)
Nc1ncccc1-c1cc(Cc2ccc(OCc3ccc(F)cn3)cc2F)no1 [Example 96, 3-(3-(2-Fluoro-4-(5-fluoro-pyridin-2-ylmethoxy)-benzyl)-isoxazol-5-yl)pyridin-2-ylamine]	0.78 (≈ 1.98 µM)	3.13 (≈ 7.94 µM)
Nc1ncccc1-c1cc(Cc2ccc(Sc3ccccc3)nc2)no1 [Example 97, 3-(3-(6-Phenylsulfanyl-pyridin-3-ylmethyl)-isoxazol-5-yl)-pyridin-2-ylamine]	0.2 (≈ 0.555 µM)	0.39 (≈ 1.08 µM)
COc1cccc(COc2ccc(Cc3cc(-c4cccnc4N)on3)cc2)c1 [Example 98, 3-(3-(4-(3-Methoxy-benzyloxy)-benzyl)-isoxazol-5-yl)-pyridin-2-ylamine]	0.39 (≈ 1.01 µM)	0.39 (≈ 1.01 µM)
COc1cccc(COc2ccc(Cc3cc(-c4cccnc4N)on3)cc2)n1 [Example 99, 3-(3-(4-(6-Methoxy-pyridin-2-ylmethoxy)-benzyl)-isoxazol-5-yl)-pyridin-2-ylamine]	0.78 (≈ 2.01 µM)	3.13 (≈ 8.06 µM)
Nc1ncccc1-c1cc(Cc2ccc(Oc3cccnc3)nc2)no1 [Example 100, 3-(3-(6-(Pyridin-3-yloxy)-pyridin-3-ylmethyl)-isoxazol-5-yl)-pyrindin-2-ylamine]	6.25 (≈ 18.1 µM)	3.13 (≈ 9.06 µM)
Cc1ccc(COc2ccc(Cc3cc(-c4ccc(N)nc4N)on3)cc2)nc1 [Example 101]	1.56 (≈ 4.03 µM)	1.56 (≈ 4.03 µM)
Cc1ccc(OCc2ccc(Cc3cc(-c4ccc(N)nc4N)on3)cc2)nc1 [Example 103, 3-(3-(4-(5-Methyl-pyridin-2-yloxymethyl)-benzyl)-isoxazol-5-yl)-pyridin-2,6-diamine]	0.78 (≈ 2.01 µM)	1.56 (≈ 4.03 µM)
